Test results taken from US9458192B1, “Covalent granzyme B inhibitors” (viDA Therapeutics Inc., priority 2014, dated 2016).

Target: GzmB (Homo sapiens, UniProt P10144)
Test: Inhibition of fibronectin cleavage by GzmB
Type: biochemical
Conditions: 20 nM granzyme B, Hilyte Fluor 488 labeled fibronectin, 30° C.
Procedure: Black, 96 well high-binding assay plates (Griener Bio-one) were treated overnight at 4° C. with 40 uL of 8 ug/mL Hilyte Fluor 488 labeled Fibronectin (Cytoskeleton, Inc). After fibronectin coating, plates were washed 3 times in buffer (20 mM Tris-HCl, pH 7.4, 20 mM NaCl) then once with granzyme B assay buffer (50 mM HEPES, pH 7.5, 0.1% CHAPS). After washing, 50 uL of granzyme B assay buffer was added to each fibronectin-coated well. In a separate non-binding 96 well assay plate 5 uL of 20× inhibitor serial dilution stocks were added to 45 uL of 2.22×GzmB mix to establish inhibition (enzyme/inhibitor mixes were all prepared in granzyme B assay buffer and were incubated first at room temperature for 20 minutes, then at 30° C. for another 10 minutes). After incubation, 50 uL of this 2× enzyme/inhibitor mix was added to the corresponding coated well to initiate fibronectin cleavage (20 nM final granzyme B concentration, 8-point inhibitor dilution series starting at 50 uM). The assay was conducted at 30° C. in the TECAN plate reader (TECAN INFINITE® M1000 Pro), which was programmed to monitor the kinetic fluorescence polarization signal (filter set Ex/Em 470 nm/527 nm) with readings taken every minute, for 1 hour. Proteolytic activity was evaluated as the rate of fluorescence enhancement in the parallel emission over the linear range of the reaction. % Inhibition values were calculated from assay controls and the resulting date is shown in Table 2.

Chain of GzmB (P10144 21-247): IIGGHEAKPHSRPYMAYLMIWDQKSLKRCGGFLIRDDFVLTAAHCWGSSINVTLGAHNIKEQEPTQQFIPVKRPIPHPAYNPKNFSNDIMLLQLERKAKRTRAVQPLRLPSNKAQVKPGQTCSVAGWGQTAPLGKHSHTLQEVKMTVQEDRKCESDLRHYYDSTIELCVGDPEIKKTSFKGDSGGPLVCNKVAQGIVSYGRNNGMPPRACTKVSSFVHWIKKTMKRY

inhibition at 0.62 µM (0.62 uM inhibitor, read-out: Percent Inhibition at Inhibitor Concentration 0.62 uM): 60%
inhibition at 5.56 µM (5.56 uM inhibitor, read-out: Percent Inhibition at Inhibitor Concentration 5.56 uM): 87%
inhibition at 50 µM (50 uM inhibitor, read-out: Percent Inhibition at Inhibitor Concentration 50 uM): 95%
SMILES: CC[C@H](C)[C@H](NC(=O)CCC(=O)O)C(=O)NCC(=O)N1c2ccccc2C[C@H]1C(=O)NC(C=O)CC(=O)O (stereo in doubt) [Compound C1, (S)-3-{[1-{2-[(2S,3S)-2-(3-carboxypropanamido)-3-methylpentanamido]acetyl}-2,3-dihydro-1H-indol-2-yl]formamido}-4-oxobutanoic acid]
